Reference: patent publication US11364225B2, “Pharmaceutical formulation for treating symptoms of migraine and cluster headaches, and method of using the same” (BN INTELLECTUAL PROPERTIES, INC., priority 2019, dated 2022)
Where two headings read alike, the source gives them in different places.

Legend:
[1] = cited from earlier work
[2] = Treatment of migraine headache symptoms (pain phase) with an inhaled plume of particles from an active mesh nebulizer; format: in vivo, patient (adult)
Method: In a non-limiting example, an adult with a history of chronic migraine headaches was treated for migraine headache symptoms during the pain phase using an inhaled plume of particles from an active mesh nebulizer as described herein, and as described in U.S. patent application Ser. No. 16/836,485, titled “NEBULIZER FOR TIME-REGULATED DELIVERY”. The person was provided with an active mesh nebulizer containing a solution of sumatriptan succinate in water at 0.1996 weight % (wt %) [e.g., 4 mg sumatriptan succinate in 2 grams of water, such that (0.004 g sumatriptan succinate/2.004 g solution)*100=0.1996 wt % sumatriptan succinate] which produced a plume of particles where over 95% of the particles have individual particle diameters ranging from about 0.5 μm to about 3.0 μm. The active mesh nebulizer was configured to produce a plume of particles by nebulizing the sumatriptan succinate solution at a rate of 0.2 milliliters per minute (ml/min) for one minute, resulting in a patient dose for a first inhalation session (e.g., six 10-second inhaled plume pulses) of not more than 4 mg sumatriptan succinate.
The person had indicated in their medical history that they had regularly experienced migraine headache symptoms, at a frequency of about 3-4 episodes per week, over several months prior to the treatment.

Compound | relief time (symptom relief) ([1]; sub-lingual delivery, according to theory and belief) [min] | relief time (patient relief) ([1]; intra-nasal delivery, according to theory and belief) [min] | relief time (patient relief) ([1]; sub-cutaneous delivery, after injection) [min] | migraine headache symptoms, self-evaluated after treatment ([2]; one adult with chronic migraine, inhaled, 0.1996 wt % solution in water, six 10-second plume pulses, not more than 4 mg, evaluated after waiting 5 minutes) | remission after treatment ([2]; same patient, about 3-4 episodes per week before treatment)
CN(C)CCc1c[nH]c2ccc(C[C@H]3COC(=O)N3)cc12 [zolmitriptan] | ≤ 30 |  |  |  | 
CNS(=O)(=O)Cc1ccc2[nH]cc(CCN(C)C)c2c1 [sumatriptan succinate] |  | 30 to 60 | 60 to 90 | completely abated | more than seven days
